Experimental data taken from patent publication US8158636B2, “Compounds and methods for kinase modulation, and indications therefor” (Plexxikon Inc., priority 2008, dated 2012).

Columns and labels:
Assay type in all cases: biochemical
Fms = Fms (Homo sapiens, UniProt P07333); test: Kinase activity assay, Fms; details: Table 1h; read-out: activity toward kinase Fms, IC50
From the text: (§1) Assays for the activity of kinases, including, but not limited to, Fms, Kit, B-Raf, B-Raf V600E, c-Raf-1, and TrkA are known in the art, for example as described in US Patent Publication Number US20070032519 and U.S. patent application Ser. No. 11/473,347 (see also, PCT publication WO2007002433), the disclosures of which are hereby incorporated by reference with respect to such assays.

Kdr = Kdr (Homo sapiens, UniProt P35968); test: Kinase activity assay, Kdr; details: Table 1i; read-out: activity toward kinase Kdr, IC50
Chain of Kdr (P35968 20-1356): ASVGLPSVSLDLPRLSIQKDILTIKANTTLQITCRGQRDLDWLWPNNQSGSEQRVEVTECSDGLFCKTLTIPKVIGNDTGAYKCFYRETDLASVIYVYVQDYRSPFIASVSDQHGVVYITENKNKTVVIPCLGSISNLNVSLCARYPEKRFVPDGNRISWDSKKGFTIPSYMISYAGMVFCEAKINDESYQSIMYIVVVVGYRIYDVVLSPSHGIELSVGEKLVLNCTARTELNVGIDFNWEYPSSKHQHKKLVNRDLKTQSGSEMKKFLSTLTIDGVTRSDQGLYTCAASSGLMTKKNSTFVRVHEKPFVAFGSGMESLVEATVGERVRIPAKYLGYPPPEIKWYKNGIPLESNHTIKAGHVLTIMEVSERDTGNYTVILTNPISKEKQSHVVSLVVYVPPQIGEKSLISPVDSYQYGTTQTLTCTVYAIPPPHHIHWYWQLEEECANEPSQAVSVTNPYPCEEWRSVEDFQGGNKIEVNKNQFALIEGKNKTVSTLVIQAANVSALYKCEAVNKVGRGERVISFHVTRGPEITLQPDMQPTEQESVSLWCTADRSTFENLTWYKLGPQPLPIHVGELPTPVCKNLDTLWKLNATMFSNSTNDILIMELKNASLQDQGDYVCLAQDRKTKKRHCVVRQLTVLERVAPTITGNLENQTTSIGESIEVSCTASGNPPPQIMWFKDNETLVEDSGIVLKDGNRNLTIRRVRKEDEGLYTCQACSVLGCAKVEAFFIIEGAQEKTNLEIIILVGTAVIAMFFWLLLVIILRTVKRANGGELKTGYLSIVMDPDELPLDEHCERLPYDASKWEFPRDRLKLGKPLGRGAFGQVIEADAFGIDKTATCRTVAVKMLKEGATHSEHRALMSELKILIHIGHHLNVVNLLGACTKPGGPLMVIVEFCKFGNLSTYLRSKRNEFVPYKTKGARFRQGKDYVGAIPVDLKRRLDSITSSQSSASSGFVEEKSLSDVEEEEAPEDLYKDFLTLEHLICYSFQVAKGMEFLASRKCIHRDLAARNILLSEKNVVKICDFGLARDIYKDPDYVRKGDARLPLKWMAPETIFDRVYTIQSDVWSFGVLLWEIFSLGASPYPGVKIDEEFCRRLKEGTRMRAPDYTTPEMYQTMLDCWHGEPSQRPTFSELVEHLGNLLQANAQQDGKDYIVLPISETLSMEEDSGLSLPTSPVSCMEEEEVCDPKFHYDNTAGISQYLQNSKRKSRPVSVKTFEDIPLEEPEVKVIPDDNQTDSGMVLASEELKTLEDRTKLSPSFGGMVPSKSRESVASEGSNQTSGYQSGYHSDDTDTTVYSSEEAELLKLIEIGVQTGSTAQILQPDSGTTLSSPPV
From the text: as §1

Kit = Kit (Homo sapiens, UniProt P10721); test: Kinase activity assay, Kit; details: Table 1j; read-out: activity toward kinase Kit, IC50
Chain of Kit (P10721 26-976): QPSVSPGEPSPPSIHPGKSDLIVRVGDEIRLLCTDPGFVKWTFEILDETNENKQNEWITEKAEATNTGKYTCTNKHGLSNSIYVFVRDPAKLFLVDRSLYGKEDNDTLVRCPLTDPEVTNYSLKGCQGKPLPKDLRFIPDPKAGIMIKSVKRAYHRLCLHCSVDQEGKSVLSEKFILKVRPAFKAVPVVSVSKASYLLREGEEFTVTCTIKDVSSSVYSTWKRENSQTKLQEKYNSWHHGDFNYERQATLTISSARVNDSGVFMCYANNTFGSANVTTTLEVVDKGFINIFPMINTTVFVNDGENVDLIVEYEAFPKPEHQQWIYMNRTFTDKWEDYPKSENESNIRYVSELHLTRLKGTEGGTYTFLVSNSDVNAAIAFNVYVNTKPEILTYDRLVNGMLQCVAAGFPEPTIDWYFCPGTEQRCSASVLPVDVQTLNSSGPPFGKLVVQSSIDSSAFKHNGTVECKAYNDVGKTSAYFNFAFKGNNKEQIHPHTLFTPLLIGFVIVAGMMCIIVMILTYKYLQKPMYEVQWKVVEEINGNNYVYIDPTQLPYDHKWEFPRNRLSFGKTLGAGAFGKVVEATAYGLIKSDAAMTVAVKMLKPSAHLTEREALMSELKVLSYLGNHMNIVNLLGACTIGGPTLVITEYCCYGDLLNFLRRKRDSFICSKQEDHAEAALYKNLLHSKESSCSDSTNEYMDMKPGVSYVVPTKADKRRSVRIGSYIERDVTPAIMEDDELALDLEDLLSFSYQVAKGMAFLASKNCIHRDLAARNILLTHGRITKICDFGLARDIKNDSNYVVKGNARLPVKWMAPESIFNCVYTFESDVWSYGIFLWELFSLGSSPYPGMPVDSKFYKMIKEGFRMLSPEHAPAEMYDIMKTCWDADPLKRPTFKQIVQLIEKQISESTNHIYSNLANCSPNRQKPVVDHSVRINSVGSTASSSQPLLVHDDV
From the text: as §1

B-Raf V600E = B-Raf V600E (Homo sapiens, UniProt P15056, V600E); test: Kinase activity assay, B-Raf V600E; details: Table 1c; read-out: activity toward kinase B-Raf V600E, IC50
Chain of B-Raf V600E (P15056 whole entry V600E): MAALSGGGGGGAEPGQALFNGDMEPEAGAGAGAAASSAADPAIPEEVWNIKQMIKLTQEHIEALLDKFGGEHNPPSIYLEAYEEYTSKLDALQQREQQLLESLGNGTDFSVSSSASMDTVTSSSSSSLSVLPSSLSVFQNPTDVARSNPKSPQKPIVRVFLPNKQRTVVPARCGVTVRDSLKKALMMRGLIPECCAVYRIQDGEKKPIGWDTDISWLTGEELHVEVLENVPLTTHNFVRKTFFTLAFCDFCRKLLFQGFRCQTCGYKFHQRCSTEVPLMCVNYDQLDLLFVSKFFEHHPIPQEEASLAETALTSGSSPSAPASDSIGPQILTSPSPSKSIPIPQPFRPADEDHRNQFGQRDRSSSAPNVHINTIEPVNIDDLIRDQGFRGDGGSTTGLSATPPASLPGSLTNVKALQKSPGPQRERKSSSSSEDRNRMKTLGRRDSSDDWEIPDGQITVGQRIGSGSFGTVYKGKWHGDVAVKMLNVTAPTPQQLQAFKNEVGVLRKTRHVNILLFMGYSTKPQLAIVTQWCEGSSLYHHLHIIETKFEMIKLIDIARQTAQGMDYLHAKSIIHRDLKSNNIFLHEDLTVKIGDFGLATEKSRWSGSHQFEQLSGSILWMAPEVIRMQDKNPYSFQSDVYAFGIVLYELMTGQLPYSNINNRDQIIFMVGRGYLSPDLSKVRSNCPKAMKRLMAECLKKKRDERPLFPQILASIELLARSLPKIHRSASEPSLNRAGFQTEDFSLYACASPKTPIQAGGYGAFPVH
From the text: as §1

TrkA = TrkA (Homo sapiens, UniProt P04629); test: Kinase activity assay, TrkA; details: Table 1m; read-out: activity toward kinase TrkA, IC50
Chain of TrkA (P04629 33-796): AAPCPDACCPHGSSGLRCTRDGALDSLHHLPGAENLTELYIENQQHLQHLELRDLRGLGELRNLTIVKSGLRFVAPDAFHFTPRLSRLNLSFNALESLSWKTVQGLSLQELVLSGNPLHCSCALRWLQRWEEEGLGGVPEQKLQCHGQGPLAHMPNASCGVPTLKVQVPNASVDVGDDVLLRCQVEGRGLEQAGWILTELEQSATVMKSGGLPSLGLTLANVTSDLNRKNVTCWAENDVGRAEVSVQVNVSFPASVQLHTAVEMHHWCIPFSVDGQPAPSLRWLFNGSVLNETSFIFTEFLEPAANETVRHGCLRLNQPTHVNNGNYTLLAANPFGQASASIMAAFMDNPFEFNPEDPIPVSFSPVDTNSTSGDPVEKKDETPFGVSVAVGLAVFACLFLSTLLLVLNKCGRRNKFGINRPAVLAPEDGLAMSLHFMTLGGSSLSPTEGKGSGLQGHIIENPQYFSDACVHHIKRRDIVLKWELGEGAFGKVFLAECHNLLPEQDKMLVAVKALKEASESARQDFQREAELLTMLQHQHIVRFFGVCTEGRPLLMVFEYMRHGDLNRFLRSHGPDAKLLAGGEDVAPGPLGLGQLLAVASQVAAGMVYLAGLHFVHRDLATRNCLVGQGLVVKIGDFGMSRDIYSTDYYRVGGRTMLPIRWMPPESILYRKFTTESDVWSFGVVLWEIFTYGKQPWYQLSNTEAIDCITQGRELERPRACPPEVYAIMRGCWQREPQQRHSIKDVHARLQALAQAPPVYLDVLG
From the text: as §1

Chain of Fms (P07333 20-972): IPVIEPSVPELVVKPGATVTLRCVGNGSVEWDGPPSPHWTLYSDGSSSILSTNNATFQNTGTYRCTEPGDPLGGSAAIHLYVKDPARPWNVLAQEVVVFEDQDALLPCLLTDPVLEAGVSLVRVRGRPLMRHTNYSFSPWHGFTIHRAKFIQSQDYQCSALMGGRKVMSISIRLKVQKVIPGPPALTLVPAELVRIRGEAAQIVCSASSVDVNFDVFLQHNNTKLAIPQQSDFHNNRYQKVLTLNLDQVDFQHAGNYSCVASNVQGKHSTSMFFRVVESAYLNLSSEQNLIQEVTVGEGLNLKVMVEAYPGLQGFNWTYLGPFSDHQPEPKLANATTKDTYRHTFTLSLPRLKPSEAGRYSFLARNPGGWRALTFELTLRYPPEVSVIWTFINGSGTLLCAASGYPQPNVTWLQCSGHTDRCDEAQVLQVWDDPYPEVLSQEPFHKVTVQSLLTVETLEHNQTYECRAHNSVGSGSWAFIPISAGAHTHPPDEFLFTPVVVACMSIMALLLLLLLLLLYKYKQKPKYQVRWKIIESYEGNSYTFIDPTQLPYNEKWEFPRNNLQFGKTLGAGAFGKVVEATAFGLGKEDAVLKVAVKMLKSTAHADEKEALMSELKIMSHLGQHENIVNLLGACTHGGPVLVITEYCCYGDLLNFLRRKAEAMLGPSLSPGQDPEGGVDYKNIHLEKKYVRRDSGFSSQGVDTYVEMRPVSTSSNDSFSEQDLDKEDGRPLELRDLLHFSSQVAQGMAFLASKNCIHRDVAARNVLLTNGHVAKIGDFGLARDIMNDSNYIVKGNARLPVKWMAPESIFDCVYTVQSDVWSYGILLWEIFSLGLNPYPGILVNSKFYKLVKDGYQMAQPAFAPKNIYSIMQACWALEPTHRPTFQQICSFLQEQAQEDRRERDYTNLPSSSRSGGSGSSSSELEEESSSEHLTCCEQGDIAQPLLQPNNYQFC

| Compound | IC50 (Fms) [µM] | IC50 (Kdr) [µM] | IC50 (Kit) [µM] | IC50 (B-Raf V600E) [µM] | IC50 (TrkA) [µM] |
| --- | --- | --- | --- | --- | --- |
| COc1cc(CNc2ccc(Cc3c[nH]c4ncncc34)c(F)n2)cc(OC)c1OC [P-0037, [6-Fluoro-5-(7H-pyrrolo[2,3-d]pyrimidin-5-ylmethyl)-pyridin-2-yl]-(3,4,5-trimethoxy-benzyl)-amine] | ≤ 10 | ≤ 10 | – | ≤ 10 | – |
| Fc1nc(NCc2ccc(Cl)nc2)ccc1Cc1c[nH]c2ncncc12 [P-0045, (6-Chloro-pyridin-3-ylmethyl)-[6-fluoro-5-(7H-pyrrolo[2,3-d]pyrimidin-5-ylmethyl)-pyridin-2-yl]-amine] | ≤ 10 | ≤ 10 | ≤ 10 | ≤ 10 | – |
| Fc1cncc(CNc2ccc(Cc3c[nH]c4ncncc34)c(F)n2)c1 [P-0050, (5-Fluoro-pyridin-3-ylmethyl)-[6-fluoro-5-(7H-pyrrolo[2,3-d]pyrimidin-5-ylmethyl)-pyridin-2-yl]-amine] | ≤ 10 | – | – | ≤ 10 | – |
| Fc1nc(NCc2ccc(Br)cn2)ccc1Cc1c[nH]c2ncncc12 [P-0053, (5-Bromo-pyridin-2-ylmethyl)-[6-fluoro-5-(7H-pyrrolo[2,3-d]pyrimidin-5-ylmethyl)-pyridin-2-yl]-amine] | ≤ 10 | ≤ 10 | ≤ 10 | ≤ 10 | – |
| CS(=O)(=O)c1cc(Cl)ccc1CNc1ccc(Cc2c[nH]c3ncncc23)c(F)n1 [P-0060, (4-Chloro-2-methanesulfonyl-benzyl)-[6-fluoro-5-(7H-pyrrolo[2,3-d]pyrimidin-5-ylmethyl)-pyridin-2-yl]-amine] | ≤ 10 | ≤ 10 | – | ≤ 10 | – |
| Fc1cnc(Cl)cc1CNc1ccc(Cc2c[nH]c3ncncc23)c(F)n1 [P-0072, (2-Chloro-5-fluoro-pyridin-4-ylmethyl)-[6-fluoro-5-(7H-pyrrolo[2,3-d]pyrimidin-5-ylmethyl)-pyridin-2-yl]-amine] | ≤ 10 | ≤ 10 | – | ≤ 10 | – |
| Fc1nc(NCc2ccnc(C(F)(F)F)c2)ccc1Cc1c[nH]c2ncncc12 [P-0075, [6-Fluoro-5-(7H-pyrrolo[2,3-d]pyrimidin-5-ylmethyl)-pyridin-2-yl]-(2-trifluoromethyl-pyridin-4-ylmethyl)-amine] | ≤ 10 | ≤ 10 | – | – | ≤ 10 |
| Fc1nc(NCc2ccnc(Cl)c2)ccc1Cc1c[nH]c2ncncc12 [P-0076, (2-Chloro-pyridin-4-ylmethyl)-[6-fluoro-5-(7H-pyrrolo[2,3-d]pyrimidin-5-ylmethyl)-pyridin-2-yl]-amine] | ≤ 10 | ≤ 10 | – | ≤ 10 | – |
| CCOc1ncccc1CNc1ncc(Cc2c[nH]c3ncncc23)cn1 [P-0085, (2-Ethoxy-pyridin-3-ylmethyl)-[5-(7H-pyrrolo[2,3-d]pyrimidin-5-ylmethyl)-pyrimidin-2-yl]-amine] | ≤ 10 | ≤ 10 | ≤ 10 | – | – |
| c1cc(CNc2ncc(Cc3c[nH]c4ncncc34)cn2)cc(OC2CCCC2)n1 [P-0087, (2-Cyclopentyloxy-pyridin-4-ylmethyl)-[5-(7H-pyrrolo[2,3-d]pyrimidin-5-ylmethyl)-pyrimidin-2-yl]-amine] | ≤ 10 | ≤ 10 | ≤ 10 | – | – |
| COc1ncc(F)cc1CNc1ccc(Cc2c[nH]c3ncnc(O)c23)cn1 [P-0099, 5-{6-[(5-Fluoro-2-methoxy-pyridin-3-ylmethyl)-amino]-pyridin-3-ylmethyl}-7H-pyrrolo[2,3-d]pyrimidin-4-ol] | ≤ 10 | – | ≤ 10 | – | ≤ 10 |

The remaining lines, values ahead:

| IC50 (Fms) [µM] | IC50 (Kdr) [µM] | IC50 (Kit) [µM] | IC50 (B-Raf V600E) [µM] | IC50 (TrkA) [µM] | Compound |
| --- | --- | --- | --- | --- | --- |
| ≤ 10 | ≤ 10 | ≤ 10 | ≤ 10 | – | C[C@H](Nc1ccc(Cc2c[nH]c3ncncc23)c(F)n1)c1ccc(F)cc1 [P-0016, [(S)-1-(4-Fluoro-phenyl)-ethyl]-[6-fluoro-5-(7H-pyrrolo[2,3-d]pyrimidin-5-ylmethyl)-pyridin-2-yl]-amine] |
| ≤ 10 | ≤ 10 | – | ≤ 10 | – | COc1cc(CNc2ccc(Cc3c[nH]c4ncncc34)c(F)n2)c(F)cn1 [P-0021, (5-Fluoro-2-methoxy-pyridin-4-ylmethyl)-[6-fluoro-5-(7H-pyrrolo[2,3-d]pyrimidin-5-ylmethyl)-pyridin-2-yl]-amine] |
| ≤ 10 | ≤ 10 | ≤ 10 | ≤ 10 | – | COc1ncc(F)cc1CNc1ncc(Cc2c[nH]c3ncncc23)cn1 [P-0022, (5-Fluoro-2-methoxy-pyridin-3-ylmethyl)-[5-(7H-pyrrolo[2,3-d]pyrimidin-5-ylmethyl)-pyrimidin-2-yl]-amine] |
| ≤ 10 | – | ≤ 10 | ≤ 10 | – | COc1ccc(OC)c(CNc2ccc(Cc3c[nH]c4ncncc34)c(F)n2)c1 [P-0038, (2,5-Dimethoxy-benzyl)-[6-fluoro-5-(7H-pyrrolo[2,3-d]pyrimidin-5-ylmethyl)-pyridin-2-yl]-amine] |
| ≤ 10 | – | – | ≤ 10 | – | COc1cncc(CNc2ccc(Cc3c[nH]c4ncncc34)c(F)n2)c1 [P-0040, [6-Fluoro-5-(7H-pyrrolo[2,3-d]pyrimidin-5-ylmethyl)-pyridin-2-yl]-(5-methoxy-pyridin-3-ylmethyl)-amine] |
| ≤ 10 | ≤ 10 | ≤ 10 | ≤ 10 | – | Cc1ccc(CNc2ccc(Cc3c[nH]c4ncncc34)c(F)n2)nc1 [P-0062, [6-Fluoro-5-(7H-pyrrolo[2,3-d]pyrimidin-5-ylmethyl)-pyridin-2-yl]-(5-methyl-pyridin-2-ylmethyl)-amine] |
| ≤ 10 | ≤ 10 | – | – | ≤ 10 | COc1cc(CNc2ccc(Cc3c[nH]c4ncncc34)c(F)n2)cc(OC)c1 [P-0065, (3,5-Dimethoxy-benzyl)-[6-fluoro-5-(7H-pyrrolo[2,3-d]pyrimidin-5-ylmethyl)-pyridin-2-yl]-amine] |
| ≤ 10 | ≤ 10 | – | – | ≤ 10 | Fc1nc(NCc2cccnc2C(F)(F)F)ccc1Cc1c[nH]c2ncncc12 [P-0071, [6-Fluoro-5-(7H-pyrrolo[2,3-d]pyrimidin-5-ylmethyl)-pyridin-2-yl]-(2-trifluoromethyl-pyridin-3-ylmethyl)-amine] |
| ≤ 10 | ≤ 10 | – | ≤ 10 | – | N#Cc1cc(CNc2ccc(Cc3c[nH]c4ncncc34)c(F)n2)ccn1 [P-0073, 4-{[6-Fluoro-5-(7H-pyrrolo[2,3-d]pyrimidin-5-ylmethyl)-pyridin-2-ylamino]-methyl}-pyridine-2-carbonitrile] |
| ≤ 10 | – | – | ≤ 10 | – | Fc1ncc(Cl)cc1CNc1ccc(Cc2c[nH]c3ncncc23)c(F)n1 [P-0077, (5-Chloro-2-fluoro-pyridin-3-ylmethyl)-[6-fluoro-5-(7H-pyrrolo[2,3-d]pyrimidin-5-ylmethyl)-pyridin-2-yl]-amine] |
| ≤ 10 | ≤ 10 | – | ≤ 10 | – | CCc1ncc(CNc2ccc(Cc3c[nH]c4ncncc34)c(F)n2)cn1 [P-0078, (2-Ethyl-pyrimidin-5-ylmethyl)-[6-fluoro-5-(7H-pyrrolo[2,3-d]pyrimidin-5-ylmethyl)-pyridin-2-yl]-amine] |
| ≤ 10 | ≤ 10 | – | ≤ 10 | – | CCCCc1ncc(CNc2ccc(Cc3c[nH]c4ncncc34)c(F)n2)cn1 [P-0081, (2-Butyl-pyrimidin-5-ylmethyl)-[6-fluoro-5-(7H-pyrrolo[2,3-d]pyrimidin-5-ylmethyl)-pyridin-2-yl]-amine] |
